Source: US20220339143A1, “TAK-925 FOR USE IN TREATING NARCOLEPSY” (Takeda Pharmaceutical Company Limited, priority 2019, published 2022)
“Also recorded” adds a separate entry of the source. Read-outs that look alike come from different tables or passages of the source.

Assay: Single dose PK in healthy subjects (Cohorts 1, 2, S1 and S2), plasma
Type: in vivo, human
Method: This study investigates (i) the safety and tolerability of Compound A (methyl (2R,3S)-3-((methylsulfonyl)amino)-2-(((cis-4-phenylcyclohexyl)oxy)methyl)piperidine-1-carboxylate) when a single dose given as a 9 hour continuous IV infusion is administered to healthy adults, healthy elderly subjects and patients with narcolepsy type 1 (NT1); (ii) the pharmacokinetics of Compound A when a single dose given as a 9 hour continuous IV infusion is administered to healthy adults, healthy elderly subjects and patients with narcolepsy type 1; and (iii) the pharmacodynamics (PD) effects of Compound A, primarily by evaluation of the sleep latency on MWT when a single dose given as a 9 hour continuous IV infusion is administered to patients with narcolepsy type 1.
Pharmacokinetics: Concentrations of Compound A in plasma, and CSF, and pharmacokinetics parameters.
On average, the time to reach the plateau appeared to be approximately 3 to 4 hours after the start of infusion. […] After switching off the IV infusion, Compound A plasma concentrations declined rapidly and in a biphasic manner with a mean terminal disposition phase t1/2z ranging approximately from 3.4 to 5.1 hours across all doses. […] Table 5 provides a summary of plasma concentrations of Compound A after a single IV infusion in healthy subjects. Table 6 provides a summary of pharmacokinetic parameters of Compound A after a single IV infusion in healthy subjects.

[1] = 56 mg, 2 hr After End of Infusion
[2] = 112 mg single IV infusion, healthy subjects
[3] = 112 mg, 0.17 hr After End of Infusion
[4] = 134.4 mg single IV infusion, healthy subjects
[5] = 134.4 mg, 0.17 hr After End of Infusion
[6] = 180 mg single IV infusion, healthy subjects
[7] = 240 mg single IV infusion, healthy subjects
[8] = human, plasma, intravenous, 7 mg, read-out: Plasma concentration, Mean
[9] = human, plasma, intravenous, 7 mg, read-out: Plasma concentration, Median
[10] = human, plasma, intravenous, 7 mg, read-out: Plasma concentration, Minimum
[11] = human, plasma, intravenous, 7 mg, read-out: Plasma concentration, Q1

COC(=O)N1CCC[C@H](NS(C)(=O)=O)[C@@H]1CO[C@H]1CC[C@@H](c2ccccc2)CC1 [Compound A, methyl (2R,3S)-3-((methylsulfonyl)amino)-2-(((cis-4-phenylcyclohexyl)oxy)methyl)piperidine-1-carboxylate]
Plasma concentration, Mean [1]: 21.70 ng/mL
Plasma concentration, Minimum [1]: 15.4 ng/mL
Plasma concentration, Q1 [1]: 15.60 ng/mL
AUCinf D Mean [2]: 18.87 ng·h/mL/mg
AUCinf D Median [2]: 19.25 ng·h/mL/mg
Cmax D Mean [2]: 2.130 ng/mL/mg
Cmax D Median [2]: 2.230 ng/mL/mg
t½z Mean [2]: 3.788 h
t½z Median [2]: 3.370 h
Plasma concentration, Maximum [3]: 138 ng/mL
Plasma concentration, Mean [3]: 126.2 ng/mL
Plasma concentration, Median [3]: 133.0 ng/mL
Plasma concentration, Minimum [3]: 106 ng/mL
Plasma concentration, Q1 [3]: 110.0 ng/mL
Plasma concentration, Q3 [3]: 137.0 ng/mL
Plasma concentration, Maximum (112 mg, Predose): 0.00 ng/mL
Plasma concentration, Median (112 mg, Predose): 0.000 ng/mL
Plasma concentration, Minimum (112 mg, Predose): 0.00 ng/mL
Plasma concentration, Q1 (112 mg, Predose): 0.000 ng/mL
Plasma concentration, Q3 (112 mg, Predose): 0.000 ng/mL
AUCinf D Mean [4]: 20.23 ng·h/mL/mg
AUCinf D Median [4]: 19.95 ng·h/mL/mg
Cmax D Mean [4]: 2.293 ng/mL/mg
Cmax D Median [4]: 2.340 ng/mL/mg
t½z Mean [4]: 3.943 h
t½z Median [4]: 3.760 h
Plasma concentration, Maximum [5]: 255 ng/mL
Plasma concentration, Mean [5]: 181.7 ng/mL
Plasma concentration, Median [5]: 167.5 ng/mL
Plasma concentration, Minimum [5]: 145 ng/mL
Plasma concentration, Q1 [5]: 148.0 ng/mL
Plasma concentration, Q3 [5]: 207.0 ng/mL
Plasma concentration, Maximum (134.4 mg, Predose): 0.00 ng/mL
Plasma concentration, Mean (134.4 mg, Predose): 0.000 ng/mL
Plasma concentration, Median (134.4 mg, Predose): 0.000 ng/mL
Plasma concentration, Minimum (134.4 mg, Predose): 0.00 ng/mL
Plasma concentration, Q1 (134.4 mg, Predose): 0.000 ng/mL
Plasma concentration, Q3 (134.4 mg, Predose): 0.000 ng/mL
AUCinf D Mean [6]: 16.73 ng·h/mL/mg
AUCinf D Median [6]: 16.90 ng·h/mL/mg
Cmax D Mean [6]: 1.918 ng/mL/mg
Cmax D Median [6]: 1.990 ng/mL/mg
t½z Mean [6]: 3.363 h
t½z Median [6]: 3.225 h
AUCinf D Mean [7]: 19.28 ng·h/mL/mg
AUCinf D Median [7]: 18.45 ng·h/mL/mg
Cmax D Mean [7]: 2.133 ng/mL/mg
Cmax D Median [7]: 2.010 ng/mL/mg
Vss Median [7]: 99.25 L
t½z Mean [7]: 4.033 h
t½z Median [7]: 4.230 h
dose proportionality of mean plasma systemic exposure (doses of 7 to 240 mg, healthy adults): increased approximately dose proportionally; also recorded: exhibits linear pharmacokinetics
concentration at 0.33 h after end of infusion [8]: 7.34 ng/mL
concentration at 0.33 h after end of infusion [9]: 7.16 ng/mL
concentration at 0.33 h after end of infusion [10]: 6.28 ng/mL
concentration at 0.33 h after end of infusion [11]: 7.12 ng/mL
concentration at 0.33 h after end of infusion (human, plasma, intravenous, 7 mg, read-out: Plasma concentration, Q3): 7.26 ng/mL
concentration at 0.5 h after end of infusion [8]: 6.73 ng/mL
concentration at 0.5 h after end of infusion [9]: 6.46 ng/mL
concentration at 0.5 h after end of infusion [10]: 6.1 ng/mL
concentration at 0.5 h after end of infusion [11]: 6.26 ng/mL
concentration at 0.5 h (human, plasma, intravenous, 7 mg, 0.5 hr, read-out: Plasma concentration, Maximum): 10.5 ng/mL
concentration at 0.5 h (human, plasma, intravenous, 7 mg, 0.5 hr, read-out: Plasma concentration, Mean): 9.15 ng/mL
concentration at 0.5 h (human, plasma, intravenous, 7 mg, 0.5 hr, read-out: Plasma concentration, Median): 9.54 ng/mL
concentration at 0.5 h (human, plasma, intravenous, 7 mg, 0.5 hr, read-out: Plasma concentration, Minimum): 6.99 ng/mL
concentration at 0.5 hr (human, plasma, intravenous, 7 mg, 0.5 hr, read-out: Plasma concentration, Q1): 7.83 ng/mL
concentration at 0.5 h (human, plasma, intravenous, 7 mg, 0.5 hr, read-out: Plasma concentration, Q3): 10.5 ng/mL
concentration at 0.75 h after end of infusion [8]: 5.55 ng/mL
concentration at 0.75 h after end of infusion [9]: 5.38 ng/mL
concentration at 0.75 h after end of infusion [10]: 5.27 ng/mL
concentration at 0.75 h after end of infusion [11]: 5.35 ng/mL
concentration at 1 h after end of infusion [8]: 4.91 ng/mL
concentration at 1 h after end of infusion [9]: 4.83 ng/mL
concentration at 1 h after end of infusion [10]: 4.34 ng/mL
concentration at 1 h after end of infusion [11]: 4.82 ng/mL
concentration at 1 h (human, plasma, intravenous, 7 mg, 1 hr, read-out: Plasma concentration, Maximum): 15.1 ng/mL
concentration at 1 h (human, plasma, intravenous, 7 mg, 1 hr, read-out: Plasma concentration, Mean): 11.7 ng/mL
concentration at 1 h (human, plasma, intravenous, 7 mg, 1 hr, read-out: Plasma concentration, Median): 11.9 ng/mL
concentration at 1 h (human, plasma, intravenous, 7 mg, 1 hr, read-out: Plasma concentration, Minimum): 8.68 ng/mL
concentration at 1 hr (human, plasma, intravenous, 7 mg, 1 hr, read-out: Plasma concentration, Q1): 9.45 ng/mL
concentration at 1 h (human, plasma, intravenous, 7 mg, 1 hr, read-out: Plasma concentration, Q3): 13.2 ng/mL
concentration at 1.5 h after end of infusion [8]: 4.25 ng/mL
concentration at 1.5 h after end of infusion [9]: 4.5 ng/mL
concentration at 1.5 h after end of infusion [10]: 3.27 ng/mL
concentration at 1.5 h after end of infusion [11]: 4.15 ng/mL
concentration at 1.5 h (human, plasma, intravenous, 7 mg, 1.5 hr, read-out: Plasma concentration, Maximum): 17.6 ng/mL
concentration at 1.5 h (human, plasma, intravenous, 7 mg, 1.5 hr, read-out: Plasma concentration, Mean): 13.1 ng/mL
concentration at 1.5 h (human, plasma, intravenous, 7 mg, 1.5 hr, read-out: Plasma concentration, Median): 13 ng/mL
concentration at 1.5 h (human, plasma, intravenous, 7 mg, 1.5 hr, read-out: Plasma concentration, Minimum): 8.96 ng/mL
concentration at 1.5 hr (human, plasma, intravenous, 7 mg, 1.5 hr, read-out: Plasma concentration, Q1): 12 ng/mL
concentration at 1.5 h (human, plasma, intravenous, 7 mg, 1.5 hr, read-out: Plasma concentration, Q3): 14 ng/mL
concentration at 2 h (human, plasma, intravenous, 7 mg, 2 hr, read-out: Plasma concentration, Maximum): 18.5 ng/mL
concentration at 2 h (human, plasma, intravenous, 7 mg, 2 hr, read-out: Plasma concentration, Mean): 14.8 ng/mL
concentration at 2 h (human, plasma, intravenous, 7 mg, 2 hr, read-out: Plasma concentration, Median): 14.9 ng/mL
concentration at 2 h (human, plasma, intravenous, 7 mg, 2 hr, read-out: Plasma concentration, Minimum): 10.9 ng/mL
concentration at 2 hr (human, plasma, intravenous, 7 mg, 2 hr, read-out: Plasma concentration, Q1): 12.8 ng/mL
concentration at 2 h (human, plasma, intravenous, 7 mg, 2 hr, read-out: Plasma concentration, Q3): 16.5 ng/mL
concentration at 3 h (human, plasma, intravenous, 7 mg, read-out: Plasma concentration, Maximum): 20.2 ng/mL
concentration at 3 h [8]: 16.5 ng/mL
concentration at 3 h [9]: 15.8 ng/mL
concentration at 3 h [10]: 13.2 ng/mL
